Measurements from patent publication US6413974B1, “6,9,-disubstituted 2-[trans-(4-aminocyclohexyl) amino] purines” (Aventis Pharmaceuticals Inc., priority 1998, dated 2002).
Values joined by “and” are separate entries in the source; they are usually repeats but may differ in a detail not shown here. Equal values may be shown once. Where a name gives a salt, the structure may show the parent alone. Read-outs that look alike come from different tables or passages of the source.

Tests used:
[1] = target: T1, cdk2/cyclin E (Homo sapiens, UniProt P24941); experiment: Cyclin-Dependent Kinase 2 Assay (cdk-2 inhibition); assay type: biochemical; settings: GST-Rb substrate, 30 min at 30° C.
T1 construct: made in house; host or cells: insect cells (baculovirus co-infection)
Experimental: (§1) The transformed bacteria were grown overnight to saturation, then diluted in YT broth and incubated at 37° C. for 2 h. The protein was induced by incubation with 0.1 mM isopropylthioglycoside for 3 h. Following sedimentation by centrifugation, the cells were lysed by sonication in STE buffer ([…] NaCl, 10 mM Tris, pH 8.0, 1 mM EDTA) containing 10% sarkosyl. Particulate matter was removed by centrifugation and the lysate was incubated with glutathione-Sepharose at 4° C. The beads were washed with kinase buffer and then quantitation of Coomassie blue-stained proteins separated by SDS-PAGE was performed using a protein standard of known concentration.
(§2) Pre-wet Millipore Multiscreen 96-well filter plates (0.65 μm Durapore filters) with 200 μl kinase buffer (50 mM HEPES, pH 7.5, 10 mM MgCl2, 1 mM EGTA). GST-Rb (0.5 μg) bound to glutathione-Sepharose beads is added in 50 μl per well and the solution removed by application of vacuum. […] Add 0.1 μg cdk4/cyclin D1 (insect cell lysate) to initiate assay. Incubate 30 min at 37° C. Terminate reaction by filtration on Millipore Vacuum Manifold. Wash four times with TNEN (20 mM Tris, pH 8.0, 100 mM Na Cl, 1 mM EDTA, 0.5% nonidet P-40). After drying the plates at room temperature, the filter plates were placed in adapter plates (Packard) and 40 μl of Microscint-O® (Packard) was added to each well. Top Seal A film was used to cover the plates before counting in a Top Count Scintillation Counter.
GST-Rb as described above for cdk4/cyclin D1
Assay conditions for cdk2/cyclin E were identical to those for cdk4/cyclin D1 including the substrate. The concentration of recombinant cdk2/cyclin E in the assay was 0.1 μg per 100 μl assay. Incubation was for 30 min at 30° C.

[2] = target: T2, cdk4/cyclin D1 (Homo sapiens, UniProt P11802); experiment: Cyclin-dependent kinase 4 Assay; assay type: biochemical; settings: cdk4/cyclin D1, GST-Rb substrate, 10 μM ATP, 30 min at 37° C.; read-out: CDK4 Inhibition IC50
T2 construct: made in house; host or cells: Sf9 insect cells (Bac-to-Bac baculovirus, pFastBac)
Experimental: The IC50 values for cdk-4 inhibition were by the following method:
as §1
The cDNA for human cyclin D1 was cloned by RT PCR using […] from MCF-7 cells. […] Bacmid DNA was used to transfect Sf9 insect cells to produce recombinant virus. Following plaque purification of the virus, the viral preparations were amplified until high titer stocks were acheived.
Lysates were prepared by lysis of Sf9 cells coinfected with cdk4 and cyclin D1 in 50 mM HEPES, pH 7.5, 10 mM MgCl2, 1 mM DTT, 0.1 mM phenylmethylsulfonyl fluoride, 5 μg/ml aprotinin, and 5 μg/ml leupeptin using a PARR bomb under 500 p.s.i nitrogen pressure for 5 min at 4° C. Insoluble material was sedimented at 10,000×g for 20 min at 4° C. Glycerol was added to the supernatant to 10% and stored at −80° C. in aliquots.
as §2

[3] = system: MDA-MB-231; experiment: In vitro tumor cell proliferation, MDA-MB-231; assay type: cell-based, human; settings: read-out: In vitro Tumor Cell Proliferation (IC50, μM) Breast MDA-MB-231
Experimental: (§3) The proliferation of tumor cells was measured using a sulforhodamine B assay as described in Skehan, P., et al., J. Natl. Cancer Inst. […] Tumor cells were harvested with trypsin-EDTA, cells that excluded trypan blue were counted, added to 96-well plates and incubated overnight at 37° C. Drug was added to the wells following dilution in culture medium. Three days later, the medium was removed and replenished with medium containing fresh drug and incubated an additional 4 days. The cells were then fixed with 0.1 ml 10% trichloroacetic acid for 60 min at 4° C. The plates were rinsed five times with tap water, air-dried and stained for 30 min with 0.4% sulforhodamine B in 1% acetic acid and air-dried.
(§4) Alternatively, the CyQUANT cell proliferation assay was used to quantify tumor cell proliferation. Tumor cells were harvested with trypsin-EDTA, cells that excluded trypan blue were counted, added to 96-well plates and incubated overnight at 37° C. Drug was added to the wells following dilution in culture medium. Three days later the medium was removed and the plates frozen at −80° C. for at least 30 minutes.

[4] = system: HT-29; experiment: In vitro tumor cell proliferation, HT-29; assay type: cell-based, human; settings: read-out: In vitro Tumor Cell Proliferation (IC50, μM) Colon HT-29 (converted)
Experimental: as §3, §4
HT-29 is a human colon adenocarcinoma, moderately well-differentiated grade II (HTB 38);

[5] = system: Colo-205; experiment: In vitro tumor cell proliferation, Colo-205; assay type: cell-based, human; settings: read-out: In vitro Tumor Cell Proliferation (IC50, μM) Colon Colo-205
Experimental: as §3, §4

[6] = system: A549; experiment: In vitro tumor cell proliferation, A549; assay type: cell-based, human; settings: read-out: In vitro Tumor Cell Proliferation (IC50, μM) Lung A549
Experimental: as §3, §4

[7] = system: DMS-114; experiment: In vitro tumor cell proliferation, DMS-114; assay type: cell-based, human; settings: read-out: In vitro Tumor Cell Proliferation (IC50, μM) Lung DMS-114
Experimental: as §3, §4

[8] = system: PC-3; experiment: In vitro tumor cell proliferation, PC-3; assay type: cell-based, human; settings: read-out: In vitro Tumor Cell Proliferation (IC50, μM) Prostate PC-3
Experimental: as §3, §4

[9] = system: DU 145; experiment: In vitro tumor cell proliferation, DU 145; assay type: cell-based, human; settings: read-out: In vitro Tumor Cell Proliferation (IC50, μM) Prostate DUI45
Experimental: as §3, §4

[10] = system: MDA-MB-435; experiment: In vitro tumor cell proliferation, MDA-MB-435; assay type: cell-based, human; settings: read-out: In vitro Tumor Cell Proliferation (IC50, μM) Breast MDA-MB-435
Experimental: as §3, §4

[11] = Homo sapiens, MDA-MB-231, values marked * (mark not explained)
[12] = values marked * (mark not explained), trihydrochloride
[13] = Homo sapiens, HT-29, values marked * (mark not explained)
[14] = Homo sapiens, COLO 205, values marked * (mark not explained)
[15] = Homo sapiens, A549, values marked * (mark not explained)
[16] = Homo sapiens, DMS-114, values marked * (mark not explained)
[17] = Homo sapiens, PC-3, values marked * (mark not explained)
[18] = Homo sapiens, DU-145, values marked * (mark not explained)
[19] = values marked * (mark not explained), dihydrochloride
[20] = values without *, dihydrochloride

T2 sequence (P11802 whole entry): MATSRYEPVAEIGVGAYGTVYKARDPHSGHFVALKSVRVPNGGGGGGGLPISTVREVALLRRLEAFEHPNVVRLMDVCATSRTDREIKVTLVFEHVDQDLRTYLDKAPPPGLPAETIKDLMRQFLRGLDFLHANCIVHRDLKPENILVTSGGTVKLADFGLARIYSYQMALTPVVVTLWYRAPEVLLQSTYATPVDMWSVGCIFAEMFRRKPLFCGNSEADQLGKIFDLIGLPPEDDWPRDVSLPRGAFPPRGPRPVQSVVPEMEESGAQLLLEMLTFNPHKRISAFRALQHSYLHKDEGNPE
T2 sequence (P24385 whole entry partner): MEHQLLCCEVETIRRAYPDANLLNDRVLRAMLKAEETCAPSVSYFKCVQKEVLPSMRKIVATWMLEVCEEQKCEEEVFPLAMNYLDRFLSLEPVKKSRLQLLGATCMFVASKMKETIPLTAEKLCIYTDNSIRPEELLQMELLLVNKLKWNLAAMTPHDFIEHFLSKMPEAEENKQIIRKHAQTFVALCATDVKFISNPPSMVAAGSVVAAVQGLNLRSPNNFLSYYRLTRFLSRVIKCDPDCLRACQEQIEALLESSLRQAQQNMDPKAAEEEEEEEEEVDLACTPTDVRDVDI

| Structure (SMILES) | IC50 [1] | IC50 [2] | IC50 [4, 13] [µM] | IC50 [5, 14] [µM] | IC50 [6, 15] [µM] | IC50 [7, 16] [µM] | IC50 [8, 17] [µM] | IC50 [9, 18] [µM] | IC50 [4, 19] | IC50 [6, 19] | other results |
| --- | --- | --- | --- | --- | --- | --- | --- | --- | --- | --- | --- |
| N[C@H]1CC[C@H](Nc2nc(NCCc3ccc4c(c3)OCO4)c3ncn(C4CCCC4)c3n2)CC1 [Example 4, 2-[Trans-(4-aminocyclohexyl)amino]-6-[2-(3,4-methylenedioxyphenyl)ethylamino]-9-cyclopentylpurine dihydrochloride] | 5.1 µM | > 100 µM | – | – | – | – | – | – | – | – | – |
| C[C@H](Nc1nc(N[C@H]2CC[C@H](N)CC2)nc2c1ncn2C1CCCC1)c1ccccc1 [Example 6, (S)-2-[Trans-(4-aminocyclohexyl)amino]-6-[(α-methylbenzyl)amino]-9-cyclopentylpurine dihydrochloride] | 2.6 µM | > 100 µM | – | – | – | – | – | – | – | – | – |
| N[C@H]1CC[C@H](Nc2nc(NCCN3CCOCC3)c3ncn(C4CCCC4)c3n2)CC1 [Example 13, 2-[Trans-(4-aminocyclohexyl)amino]-6-[2-(4-morpholinyl)ethylamino]-9-cyclopentylpurine trihydrochloride] | 0.11 µM | 3.2 µM and 4.2 µM | 11 | 5.3 | 7.9 | 8.8 | 7.2 | 6.7 | – | – | IC50 [3, 11]: 4.8 µM; IC50 [3, 12]: 9.4 µM; IC50 [5, 12]: 5.2 µM; IC50 [6, 12]: 6.9 µM; IC50 [7, 12]: 6.2 µM; IC50 [8, 12]: 6.4 µM; IC50 [9, 12]: 7.5 µM |
| CC(C)n1cnc2c(NCc3cccc(Cl)c3)nc(N[C@H]3CC[C@H](N)CC3)nc21 [Example 15, 2-[Trans-(4-aminocyclohexyl)amino]-6-[(3-chloro)benzylamino]-9-(2-propyl)purine dihydrochloride] | 0.1 µM | 1.5 µM | 2.7 | 2.4 | 1.4 | 1.3 | 2.3 | 2.8 | – | – | IC50 [3, 11]: 3 µM |
| N[C@H]1CC[C@H](Nc2nc(NCc3ccccc3Cl)c3ncn(C4CCCC4)c3n2)CC1 [Example 18, 2-[Trans-(4-aminocyclohexyl)amino]-6-[(2-chlorobenzyl)amino]-9-cyclopentylpurine dihydrochloride] | 0.12 µM and 0.1 µM | 1.3 µM and 1 µM | 2.4 | – | 1.7 | – | – | – | 2.5 µM and 4.1 µM | 2.2 µM and 1.8 µM | IC50 ([10]; Homo sapiens, MDA-MB-435, values marked * (mark not explained)): 8 µM; IC50 [10, 19]: 8.2 µM |
| CCNc1nc(N[C@H]2CC[C@H](N)CC2)nc2c1ncn2C1CCCC1 [Example 33, 2-[Trans-(4-aminocyclohexyl)amino]-6-(ethylamino)-9-cyclopentylpurine dihydrochloride] | 0.014 µM and 0.026 µM and 0.006 µM | 0.18 µM | 1.5 | 2.1 | 1.2 | 0.7 | 0.9 | 0.8 | 2.1 µM | 1.8 µM | IC50 [7, 19]: 0.9 µM; IC50 [8, 19]: 1 µM |
| N[C@H]1CC[C@H](Nc2nc(NCc3ccco3)c3ncn(C4CCCC4)c3n2)CC1 [Example 38, 2-[Trans-(4-aminocyclohexyl)amino]-6-(2-furanmethylamino)-9-cyclopentylpurine dihydrochloride] | 0.019 µM | 1.4 µM | 2.1 | 2.4 | 1.7 | 1.2 | 1.4 | – | 3.6 µM | 1.1 µM | IC50 [5, 19]: 2.8 µM; IC50 [8, 19]: 1.7 µM |
| N[C@H]1CC[C@H](Nc2nc(NCc3ccccc3F)c3ncn(C4CCCC4)c3n2)CC1 [Example 42, 2-[Trans-(4-aminocyclohexyl)amino]-6-[(2-fluorobenzyl)amino]-9-cyclopentylpurine dihydrochloride] | 0.42 µM | 1 µM and 6 µM | – | – | – | – | – | – | – | – | IC50 ([3]; Homo sapiens, MDA-MB-231, values without *): 16 µM; IC50 [3, 20]: 17 µM; IC50 ([4]; Homo sapiens, HT-29, values without *): 15 µM; IC50 ([6]; Homo sapiens, A549, values without *): 7.1 µM; IC50 ([7]; Homo sapiens, DMS-114, values without *): 10 µM; IC50 [7, 20]: 5.1 µM; IC50 ([8]; Homo sapiens, PC-3, values without *): 8.8 µM; IC50 [8, 20]: 7.1 µM; IC50 ([9]; Homo sapiens, DU-145, values without *): 7.3 µM |
| CC(C)n1cnc2c(NCc3cccc(I)c3)nc(N[C@H]3CC[C@H](N)CC3)nc21 [Example 51, 2-[Trans-(4-aminocyclohexyl)amino]-6-[(3-iodobenzyl)amino]-9-(2-propyl)purine dihydrochloride] | 0.78 µM | 2.1 µM | – | – | – | – | – | – | – | – | – |
